Measurements reported in ChEMBL document CHEMBL1201862, “PubChem BioAssay data set” (2004).
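Following 48 hours of exposure in 96-well plates, responses at five concentrations were used to interpolate endpoints linearly. GI50 marks 50% less growth.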 The source made the active and inactive calls. No stated cut-off is given here; in the data, active = GI50 up to about 1.1 µM and inactive = higher.

Experiments:
Assay in all cases: NCI tumour cell line growth inhibition, 48 h
M14 = test system: M14
DLD-1 = test system: DLD-1
UO-31 = test system: UO-31
HCT-116 = test system: HCT-116
EKVX = test system: EKVX
K562 = test system: K562
CAKI-1 = test system: CAKI-1
DMS-273 = test system: DMS-273
SN12C = test system: SN12C
Malme-3M = test system: Malme-3M
HCC 2998 = test system: HCC 2998
786-0 = test system: 786-0
M19-MEL = test system: M19-MEL
SK-OV-3 = test system: SK-OV-3
SF-539 = test system: SF-539
A498 = test system: A498

Measured: GI50

O=C1CCC(=O)C1=NNc1cc(Cl)cc(Cl)c1
inactive: M14 > 100 µM | DLD-1 > 100 µM | UO-31 > 100 µM | HCT-116 76.4 µM | EKVX > 100 µM | K562 > 100 µM | CAKI-1 > 100 µM | DMS-273 > 100 µM | SN12C > 100 µM | Malme-3M > 100 µM | HCC 2998 > 100 µM | 786-0 > 100 µM | M19-MEL > 100 µM | SK-OV-3 > 100 µM | SF-539 > 100 µM | A498 15.6 µM

CN(C)c1ccc(/C=c2\sc3nnc(-c4ccco4)n3c2=O)cc1
inactive: M14 > 100 µM | DLD-1 > 100 µM | UO-31 > 100 µM | HCT-116 > 100 µM | EKVX > 100 µM | K562 > 100 µM | CAKI-1 > 100 µM | DMS-273 > 100 µM | SN12C > 100 µM | Malme-3M > 100 µM | HCC 2998 > 100 µM | 786-0 > 100 µM | M19-MEL > 100 µM | SK-OV-3 > 100 µM | SF-539 > 100 µM | A498 > 100 µM

NC(=O)NNC(=O)NC12CC3CC(CC(C3)C1)C2
inactive: M14 > 100 µM | DLD-1 > 100 µM | UO-31 > 100 µM | HCT-116 > 100 µM | EKVX > 100 µM | K562 > 100 µM | CAKI-1 > 100 µM | DMS-273 > 100 µM | SN12C > 100 µM | Malme-3M > 100 µM | HCC 2998 > 100 µM | 786-0 > 100 µM | M19-MEL > 100 µM | SK-OV-3 > 100 µM | SF-539 > 100 µM | A498 > 100 µM

COC(=O)C(=O)C(C(=O)C=C(C)C)C(=O)C(=O)Nc1ccc(C)cc1C (centres undefined)
inactive: M14 > 100 µM | DLD-1 > 100 µM | UO-31 > 100 µM | HCT-116 > 100 µM | EKVX > 100 µM | K562 > 100 µM | CAKI-1 > 100 µM | DMS-273 > 100 µM | SN12C > 100 µM | Malme-3M > 100 µM | HCC 2998 > 100 µM | 786-0 > 100 µM | M19-MEL > 100 µM | SK-OV-3 > 100 µM | SF-539 > 100 µM | A498 > 100 µM

CC(/C=C/C(=O)c1sc(C(N)=S)nc1C)=C\c1ccccc1
inactive: M14 > 100 µM | DLD-1 21 µM | UO-31 > 100 µM | HCT-116 > 10 µM | EKVX > 100 µM | K562 > 100 µM | CAKI-1 23.4 µM | DMS-273 20 µM | SN12C > 100 µM | Malme-3M > 100 µM | HCC 2998 > 100 µM | 786-0 > 100 µM | M19-MEL > 100 µM | SK-OV-3 > 100 µM | SF-539 > 100 µM | A498 > 100 µM

CC/C(=N\NS(=O)(=O)c1ccccc1)c1ccccc1
inactive: M14 > 100 µM | DLD-1 > 100 µM | UO-31 > 100 µM | HCT-116 > 100 µM | EKVX > 100 µM | K562 > 100 µM | CAKI-1 > 100 µM | DMS-273 > 100 µM | SN12C > 100 µM | Malme-3M > 100 µM | HCC 2998 > 100 µM | 786-0 > 100 µM | M19-MEL > 100 µM | SK-OV-3 > 100 µM | SF-539 > 100 µM | A498 > 100 µM

COc1cc2c(oc(=O)c3c4oc([Si](C)(C)C)cc4cc(OC)c23)c2cccc(O)c12
inactive: M14 > 100 µM | DLD-1 > 100 µM | UO-31 > 100 µM | HCT-116 > 100 µM | EKVX > 100 µM | K562 > 100 µM | CAKI-1 > 100 µM | DMS-273 > 100 µM | SN12C > 100 µM | Malme-3M > 100 µM | HCC 2998 > 100 µM | 786-0 > 100 µM | M19-MEL > 100 µM | SK-OV-3 > 100 µM | SF-539 > 100 µM | A498 > 100 µM

COc1cc2[nH]c3c(c2cc1OC)CCN[C@]31CC[C@]2(CC3c4c(cc(OC)c(O)c42)CCN3C)C[C@H]1OC (some centres undefined)
inactive: M14 15.7 µM | DLD-1 24.4 µM | UO-31 > 10 µM | HCT-116 15.6 µM | EKVX 55.7 µM | K562 11.6 µM | CAKI-1 34.4 µM | DMS-273 2 µM | SN12C 21 µM | Malme-3M 21 µM | HCC 2998 15.2 µM | 786-0 15.7 µM | M19-MEL 17.9 µM | SK-OV-3 25.8 µM | SF-539 17.1 µM | A498 24.8 µM

O=C1Cc2c([nH]c3ccccc23)-c2cc(Br)ccc2N1
inactive: M14 > 100 µM | DLD-1 > 100 µM | UO-31 > 100 µM | HCT-116 > 100 µM | EKVX > 100 µM | K562 > 100 µM | CAKI-1 > 100 µM | DMS-273 > 100 µM | SN12C > 100 µM | Malme-3M > 100 µM | HCC 2998 > 100 µM | 786-0 > 100 µM | M19-MEL > 100 µM | SK-OV-3 > 100 µM | SF-539 > 100 µM | A498 > 100 µM
